These results are taken from patent publication US20060135435A1, “Agent that retards transformation of hormone-dependent cancer to non-hormone-dependent cancer” (priority 1998, published 2006).

One may read the melting point as the temperature, or range, at which the solid turns liquid.

Structures are written as SMILES.

The molecule `C(=C\c1nc(COc2ccc(CCCn3cncn3)cc2)co1)/c1ccccc1` [Reference Example 3, 1-[3-[4-[2-[(E)-2-phenylethenyl]-4-oxazolylmethoxy]phenyl]propyl]-1,2,4-triazole] displayed a melting point of 108 to 109 °C.
